Test results from PubChem BioAssay AID1963842 (Molecular Pharmacology Branch, DTP, NCI, 2024).

System: 677734-321-R-J1-PDC complex spheroid viability
Assay: Anticancer human tumor 677734-321-R-J1-PDC patient-derived soft tissue sarcoma cell line growth inhibition [POLQ]
Details: for IC50: curve of first compound; for viability, T/C: stronger effect = lower value
Procedure: Multicellular complex tumor spheroid response to Polymerase (POL) inhibitors (novobiocin, ART-558, RP6685) in combination with a variety of drugs and investigational agents in selected tumor cell lines
The POL inhibitors (novobiocin, ART-558, and RP6685) were evaluated both individually and in combination with standard of care and investigational anticancer small molecules within a complex spheroid model of solid tumors. . Complex spheroids include a stromal component modeled by human endothelial cells (HUVEC) and fibroblasts modeled by human mesenchymal stem cells (MSCs). The concentration ranges selected for each drug and investigational agent were based upon clinically achievable concentrations if the clinical Cmax of the agent was known.
Compounds. The drugs and investigational agents: novobiocin (NSC847541), ART-558 (NSC835418), RP-6685 (NSC848927), peposertib (NSC802822), ceralasertib (NSC780249), elimusertib (NSC800525), camonsertib (NSC841442), AZD-1390 (NSC803789), olaparib (NSC753686), talazoparib (NSC767125), rucaparib (NSC756644), sotorasib (NSC818433), MRTX-1133 (NSC836407), SN-38 (NSC673596), topotecan (NSC609699), epotoside (NSC141540), doxorubicin (NSC123127), gemcitabine (NSC613327), 5-fluorouracil (NSC19893), paclitaxel (NSC125973), vemurafenib (NSC761431), MSA-2 (NSC828583), SN-011 (NSC837082), adavosertib (NSC754352), prexasertib (NSC758257), carboplatin (NSC241240) and oxaliplatin (NSC266046), were obtained from the National Cancer Institute (NCI) Developmental Therapeutics Program Chemical Repository (21). The FDA-approved anticancer drug set is available from the Developmental Therapeutics Program at https://dtp.cancer.gov/organization/dscb/obtaining/. […] The stock solutions were prepared in dimethyl sulfoxide (DMSO, Sigma-Aldrich, St. Louis, MO, cat. D2650), except for the platinum compounds which were prepared in saline (Quality Biological, Gaithersburg, MD, cat. 114-055-101), at 800-fold the tested concentration and stored at -70 degrees C prior to their use. All drugs and investigational agents were tested over a range starting from a high concentration at or near the clinical Cmax and decreasing in half-log increments. If the clinical Cmax for an agent had not been determined, the highest concentration tested was 10 microM, except for SN-38, which was tested at a high concentration of 1 microM.
Cell Culture. All cells were maintained in an incubator at 37 degrees C and 5% CO2 with 95% humidity. The PDC lines were cultured according to standard operating procedures established by the NCI PDMR (https://pdmr.cancer.gov). Table 3 of the manuscript, lists the cell lines along with the number of the three cell types plated to form the mct-spheroids and media for tumor cell growth. After thawing, all PDC lines, except 997537-175-T-J1-PDC and 415267-285-R-J2-PDC, were cultured in Matrigel-coated flasks prepared with a working solution of 1X Ham's F-12 nutrient mix, without supplementation (Thermo Fisher Scientific, cat. 11765054), 100 U/mL penicillin-streptomycin (Thermo Fisher Scientific, cat. 15140122), and 2.5% Matrigel (Corning Inc., Corning, NY, cat. 354248) for the first three passages. The two PDC lines 997537-175-T-J1-PDC and 415267-285-R-J2-PDC were cultured on uncoated flasks. The 857933-349-R-J2-PDC line was cultured in 6C/Colon 1B media containing advanced DMEM/F-12 (Thermo Fisher Scientific, cat. 12634028), 10 mM HEPES (Thermo Fisher Scientific, cat. 15630080), 1X GlutaMAX supplement (Thermo Fisher Scientific, cat. 35050061), 0.1 mg/mL primocin (InvivoGen, San Diego, CA, cat. ant-pm-2), 10% defined fetal bovine serum, heat inactivated (HyClone Laboratories Inc., Logan, UT, cat. SH30070.03HI), 50% L-WRN conditioned media (ATCC, cat. CRL-3276), 1.25 mM N-Acetyl-L-cysteine (Sigma-Aldrich, cat. A9165), 10 mM nicotinamide (Sigma-Aldrich, cat. N0636), 1X B-27 supplement (Thermo Fisher Scientific, cat. 17504044), 1X N-2 supplement (Thermo Fisher Scientific, cat. […]

[1] = second compound 0.0316 µM, first compound 0.0316 µM
[2] = second compound 0.0316 µM, first compound 0.1 µM
[3] = second compound 0.1 µM, first compound 0.0316 µM
[4] = second compound 0.1 µM, first compound 0.1 µM
[5] = second compound 0.316 µM, first compound 0.0316 µM
[6] = second compound 0.316 µM, first compound 0.1 µM
[7] = second compound 1 µM, first compound 0.0316 µM
[8] = second compound 1 µM, first compound 0.1 µM
[9] = second compound 3.16 µM, first compound 0.0316 µM
[10] = second compound 3.16 µM, first compound 0.1 µM
[11] = second compound 10 µM, first compound 0.0316 µM
[12] = second compound 10 µM, first compound 0.1 µM
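Further: spheroids exposed to compounds for one week.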
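Wherever viability, T/C is given: 100% = vehicle DMSO treated spheroids.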

Question: What does the source list for `CCCS(=O)(=O)Nc1ccc(F)c(C(=O)c2c[nH]c3ncc(-c4ccc(Cl)cc4)cc23)c1F` + COC1C(OC(N)=O)C(O)C(Oc2ccc3c(O)c(NC(=O)c4ccc(O)c(CC=C(C)C)c4)c(=O)oc3c2C)OC1(C)C?
Answer: IC50 (second compound 0.0316 µM): 6.53 µM; IC50 (second compound 0.1 µM): 6.39 µM; IC50 (second compound 0.316 µM): 6.59 µM; IC50 (second compound 1 µM): 6.51 µM; IC50 (second compound 3.16 µM): 6.73 µM; IC50 (second compound 10 µM): 6.49 µM; viability, T/C [1]: 103%; viability, T/C [2]: 109%; viability, T/C (second compound 0.0316 µM, first compound 0.316 µM): 101%; viability, T/C (second compound 0.0316 µM, first compound 1 µM): 118%; viability, T/C (second compound 0.0316 µM, first compound 3.16 µM): 106%; viability, T/C (second compound 0.0316 µM, first compound 10 µM): 16.7%; viability, T/C [3]: 108%; viability, T/C [4]: 107%; viability, T/C (second compound 0.1 µM, first compound 0.316 µM): 104%; viability, T/C (second compound 0.1 µM, first compound 1 µM): 120%; viability, T/C (second compound 0.1 µM, first compound 3.16 µM): 104%; viability, T/C (second compound 0.1 µM, first compound 10 µM): 15.3%; viability, T/C [5]: 105%; viability, T/C [6]: 110%; viability, T/C (second compound 0.316 µM, first compound 0.316 µM): 109%; viability, T/C (second compound 0.316 µM, first compound 1 µM): 110%; viability, T/C (second compound 0.316 µM, first compound 3.16 µM): 109%; viability, T/C (second compound 0.316 µM, first compound 10 µM): 16.6%; viability, T/C [7]: 103%; viability, T/C [8]: 107%; viability, T/C (second compound 1 µM, first compound 0.316 µM): 101%; viability, T/C (second compound 1 µM, first compound 1 µM): 112%; viability, T/C (second compound 1 µM, first compound 3.16 µM): 109%; viability, T/C (second compound 1 µM, first compound 10 µM): 16.5%; viability, T/C [9]: 106%; viability, T/C [10]: 101%; viability, T/C (second compound 3.16 µM, first compound 0.316 µM): 111%; viability, T/C (second compound 3.16 µM, first compound 1 µM): 112%; viability, T/C (second compound 3.16 µM, first compound 3.16 µM): 112%; viability, T/C (second compound 3.16 µM, first compound 10 µM): 19.3%; viability, T/C [11]: 107%; viability, T/C [12]: 104%; viability, T/C (second compound 10 µM, first compound 0.316 µM): 109%; viability, T/C (second compound 10 µM, first compound 1 µM): 105%; viability, T/C (second compound 10 µM, first compound 3.16 µM): 105%; viability, T/C (second compound 10 µM, first compound 10 µM): 17.2%

Question: For `CC[C@@]1(O)C(=O)OCc2c1cc1n(c2=O)Cc2cc3c(CN(C)C)c(O)ccc3nc2-1` + COC1C(OC(N)=O)C(O)C(Oc2ccc3c(O)c(NC(=O)c4ccc(O)c(CC=C(C)C)c4)c(=O)oc3c2C)OC1(C)C, which IC50 (second compound 0.0316 µM) is on record?
Answer: Its IC50 is 0.0257 µM.

Question: What about the IC50 (second compound 0.1 µM) of the same molecule?
Answer: The IC50 was 0.0246 µM.

Question: And the IC50 (second compound 0.316 µM)?
Answer: The IC50 was 0.0264 µM.

Question: What about the IC50 (second compound 1 µM) of the same molecule?
Answer: Its IC50 is 0.0236 µM.

Question: What about the IC50 (second compound 3.16 µM) of the same molecule?
Answer: The IC50 was 0.0252 µM.

Question: What about the IC50 (second compound 10 µM) of the same molecule?
Answer: The IC50 was 0.0288 µM.

Question: And the viability, T/C (second compound 0.0316 µM, first compound 0.000316 µM)?
Answer: Its viability, T/C is 104%.

Question: What about the viability, T/C (second compound 0.0316 µM, first compound 0.001 µM) of the same molecule?
Answer: Its viability, T/C is 112%.

Question: What about the viability, T/C (second compound 0.0316 µM, first compound 0.00316 µM) of the same molecule?
Answer: Its viability, T/C is 105%.

Question: And the viability, T/C (second compound 0.0316 µM, first compound 0.01 µM)?
Answer: Its viability, T/C is 105%.

Question: What about the viability, T/C [1] of the same molecule?
Answer: The viability, T/C was 37.1%.

Question: What about the viability, T/C [2] of the same molecule?
Answer: The viability, T/C was 16.8%.

Question: And the viability, T/C (second compound 0.1 µM, first compound 0.000316 µM)?
Answer: Its viability, T/C is 109%.

Question: And the viability, T/C (second compound 0.1 µM, first compound 0.001 µM)?
Answer: Its viability, T/C is 108%.

Question: What about the viability, T/C (second compound 0.1 µM, first compound 0.00316 µM) of the same molecule?
Answer: Its viability, T/C is 109%.

Question: What about the viability, T/C (second compound 0.1 µM, first compound 0.01 µM) of the same molecule?
Answer: Its viability, T/C is 100%.

Question: And the viability, T/C [3]?
Answer: Its viability, T/C is 33.8%.

Question: And the viability, T/C [4]?
Answer: The viability, T/C was 18.8%.

Question: What about the viability, T/C (second compound 0.316 µM, first compound 0.000316 µM) of the same molecule?
Answer: The viability, T/C was 105%.

Question: And the viability, T/C (second compound 0.316 µM, first compound 0.001 µM)?
Answer: The viability, T/C was 117%.

Question: What about the viability, T/C (second compound 0.316 µM, first compound 0.00316 µM) of the same molecule?
Answer: The viability, T/C was 94.2%.

Question: And the viability, T/C (second compound 0.316 µM, first compound 0.01 µM)?
Answer: Its viability, T/C is 103%.

Question: What about the viability, T/C [5] of the same molecule?
Answer: The viability, T/C was 39.3%.

Question: And the viability, T/C [6]?
Answer: Its viability, T/C is 16.3%.

Question: And the viability, T/C (second compound 1 µM, first compound 0.000316 µM)?
Answer: Its viability, T/C is 113%.

Question: What about the viability, T/C (second compound 1 µM, first compound 0.001 µM) of the same molecule?
Answer: Its viability, T/C is 109%.

Question: And the viability, T/C (second compound 1 µM, first compound 0.00316 µM)?
Answer: The viability, T/C was 106%.

Question: What about the viability, T/C (second compound 1 µM, first compound 0.01 µM) of the same molecule?
Answer: The viability, T/C was 106%.

Question: And the viability, T/C [7]?
Answer: Its viability, T/C is 29.3%.

Question: And the viability, T/C [8]?
Answer: The viability, T/C was 15.4%.

Question: What about the viability, T/C (second compound 3.16 µM, first compound 0.000316 µM) of the same molecule?
Answer: The viability, T/C was 120%.

Question: What about the viability, T/C (second compound 3.16 µM, first compound 0.001 µM) of the same molecule?
Answer: The viability, T/C was 108%.

Question: And the viability, T/C (second compound 3.16 µM, first compound 0.00316 µM)?
Answer: Its viability, T/C is 110%.

Question: And the viability, T/C (second compound 3.16 µM, first compound 0.01 µM)?
Answer: Its viability, T/C is 98.2%.

Question: What about the viability, T/C [9] of the same molecule?
Answer: The viability, T/C was 34.5%.

Question: What about the viability, T/C [10] of the same molecule?
Answer: The viability, T/C was 16%.

Question: What about the viability, T/C (second compound 10 µM, first compound 0.000316 µM) of the same molecule?
Answer: Its viability, T/C is 109%.

Question: And the viability, T/C (second compound 10 µM, first compound 0.001 µM)?
Answer: Its viability, T/C is 106%.

Question: What about the viability, T/C (second compound 10 µM, first compound 0.00316 µM) of the same molecule?
Answer: Its viability, T/C is 106%.

Question: What about the viability, T/C (second compound 10 µM, first compound 0.01 µM) of the same molecule?
Answer: The viability, T/C was 98.9%.

Question: What about the viability, T/C [11] of the same molecule?
Answer: Its viability, T/C is 45.6%.

Question: What about the viability, T/C [12] of the same molecule?
Answer: Its viability, T/C is 18.7%.
